From patent publication US8242142B2, “Cyclohexylamines, phenylamines and uses thereof” (The Regents of the University of California, priority 2008, dated 2012)
Like-named read-outs stand apart in the source and are kept apart here.

Key:
mouse Smoothened = target: T1, mouse Smoothened (Mus musculus, UniProt P56726); assay: Smo-binding assay (BODIPY-cyclopamine competition, HEK 293T cells); details: 5 nM BODIPY-cyclopamine, Smo-overexpressing HEK 293T cells
T1 construct: expressed in transfected cells; host or cells: HEK 293T
T1 sequence (P56726 33-793): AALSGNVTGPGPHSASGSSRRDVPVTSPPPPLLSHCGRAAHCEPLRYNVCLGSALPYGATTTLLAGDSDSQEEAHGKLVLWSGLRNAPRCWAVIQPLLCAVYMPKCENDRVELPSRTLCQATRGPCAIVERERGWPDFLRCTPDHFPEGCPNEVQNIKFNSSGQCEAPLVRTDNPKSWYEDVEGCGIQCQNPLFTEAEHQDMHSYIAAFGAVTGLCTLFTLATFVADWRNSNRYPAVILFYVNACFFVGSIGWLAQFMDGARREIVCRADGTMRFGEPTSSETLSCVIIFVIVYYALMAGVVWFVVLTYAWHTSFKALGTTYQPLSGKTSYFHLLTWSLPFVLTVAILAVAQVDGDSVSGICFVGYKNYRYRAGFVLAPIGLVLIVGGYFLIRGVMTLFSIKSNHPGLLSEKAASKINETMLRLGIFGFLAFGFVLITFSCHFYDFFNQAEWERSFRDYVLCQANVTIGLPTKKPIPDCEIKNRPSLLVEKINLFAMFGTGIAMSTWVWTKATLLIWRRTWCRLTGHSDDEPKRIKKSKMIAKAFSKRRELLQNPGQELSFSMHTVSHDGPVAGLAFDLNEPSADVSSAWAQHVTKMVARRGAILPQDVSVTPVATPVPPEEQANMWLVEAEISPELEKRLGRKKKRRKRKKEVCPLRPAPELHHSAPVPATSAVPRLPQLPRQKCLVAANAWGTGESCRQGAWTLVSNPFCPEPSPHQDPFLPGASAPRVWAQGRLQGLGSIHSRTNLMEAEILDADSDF
Procedure: Smo-binding assay. HEK 293T cells were cultured in DMEM containing 10% fetal bovine serum, 100 U/mL penicillin, and 100 μg/mL streptomycin to 50% confluency in 96-well plates and then transfected with a CMV promoter-driven mouse Smoothened-Myc3 expression construct (100 ng cDNA/well) with Fugene 6 (Roche) according to the manufacturer's protocols. After 12 h the cells were incubated with DMEM containing 0.5% fetal bovine serum, 10 μM Hoechst 33342, 5 nM BODIPY-labeled cyclopamine (Chen J. K., Taipale J, Cooper M. K., Beachy P. A., “Inhibition of Hedgehog signaling by direct binding of cyclopamine to Smoothened” Genes Dev., 2002; 16:2743-8; incorporated herein by reference), and various concentrations of compound 75 for 1 h. The cells were washed two times with PBS buffer and then imaged in DMEM containing 0.5% fetal bovine serum using an ImageXpress 5000A microscopy system (Molecular Devices).

zebrafish embryos = assay: Zebrafish embryo phenotype analysis (insulin:GFP beta cells, Flk:GFP intersegmental vessels, somites); type: in vivo; details: for off-target toxicity: whole zebrafish embryo assays
Procedure: If SANT74 and SANT75 are specific inhibitors of Hh treating, zebrafish embryos should only produce these well-characterized phenotypes. […] Using these criteria, the specificity of SANT74 and 75 in zebrafish was evaluated.
As a utility of this new inhibitor, timing requirement of Hh for normal somite formation and sprouting of ISV was tested by adding and washing away SANT74 at various developmental stages followed by phenotypic analysis.

mouse Smo = assay: FRET analysis of Smo conformation in NIH-3T3 cells; type: cell-based; details: for Shh-induced decrease in FRET from mSmo-CFPL2YFPC (FRETL2C) / Shh-induced increase in FRET between mSmo-CFPC and mSmo-YFPC (FRETC): 50 nM, with Shh; for basal FRET of mSmo-CFPN/mSmoYFPN (N-termini): SANT74 or SANT75 50 nM, SAG 100 nM, with or without Shh
Procedure: FRET analysis using confocal microscopy. Effect of SAG, compound 21a (SANT74), and compound 21b (SANT75) on mSmo conformational change was tested by FRET in NIH-3T3 cells that were co-transfected with mouse Smo CFP and Smo YFP reporter constructs. The construction of mSmo-CFP^C/YFP^C, mSmo-CFP^N/YFP^N, and mSmo-CFP^L2YFP^C was performed as described in Zhao Y. Tong C, Jiang J., “Hedgehog regulates smoothened activity by inducing a conformational switch” Nature, 2007; 450:252-8; incorporated herein by reference. NIH-3T3 cells were cultured in DMEM containing 10% bovine calf serum and antibiotics PS at 5% CO2 in a humidified incubator. Transfection was carried out using FuGENE6 (Roche). For FRET analysis of cultured cells, CFP- and YFP-tagged constructs were transfected into NIH-3T3 cells. Transfected cells were treated in the presence of compounds with or without Shh-conditioned medium. Cells were washed with PBS, fixed with 4% formaldehyde for 20 min, and mounted on slides in 80% glycerol. Fluorescence signals were acquired with the 100× objective of a Zeiss LSM510 confocal microscope. CFP was excited by 458 nm light and the emission was collected through BP 480-520 nm filter. YFP was excited by 514 nm light and the emission was collected through BP 535-590 nm filter. CFP signal was obtained once before and once after photobleaching YFP using the full power of the 514 nm laser line for 1-2 min at the top half of each cell, leaving the bottom half unbleached that serves as an internal control. The intensity of CFP was analyzed using the Metamorph software (Universal Imaging Corn). Energy transfer efficiency was calculated using the formula: FRET %=(CFPAP−CFPBP/CFPAP)×100. Each data set was based on 10-15 individual cells. In each cell, four to five regions of interest in the photobleached area were selected for analysis.

[1] = test system: Hh signal pathway target genes Ptch1 and Gli1 mRNA; assay: Quantitative real-time PCR of Hh target genes in zebrafish embryos; type: in vivo; details: dose dependent; for Ptch1 mRNA level: FIG. 1A; for Gli1 mRNA level: FIG. 1B
Procedure: Quantitative Real-time PCR. The larvae were exposed to different concentrations of small molecules from 2 hpf. Total RNA was extracted from the embryos at 36 hpf using the Trizol kit (Ambion, Austin, Tex.) according to the manufacturer's instructions. Three groups per treatment, each composed of 20 embryos, were assayed using SYBRGreen qPCR kit by real-time PCR (ABI Prism 7700 Sequence Detector System).

[2] = test system: Gli:GFP expression (Hh signaling); assay: Gli:GFP transgenic zebrafish embryo assay; type: in vivo; details: for concentration at which inhibition of Hh signaling starts to show: zebrafish embryo assays; for concentration that blocks/abolishes Gli:GFP expression: zebrafish embryos
From the text: Generation of Gli:GFP transgenic zebrafish. […] The PCR product digested with Nhe1 and Mlu1 was ligated to GFP and used to generate transgenic zebrafish by microinjection.
Image acquisition and analysis.

Stability remarks = type: physicochemical; details: in our studies
Shh-LIGHT2 cells = assay: Compound activities in Shh-LIGHT2 cells (Gli-dependent luciferase reporter); type: cell-based; details: Shh Light2, Shh-N-conditioned medium, luciferase reporter activity
Procedure: Shh-LIGHT2 cells (ATCC CRL-2795), a NIH-3T3 cell line stably incorporating Gli-dependent firefly luciferase and thyrmidine kinase promoter-driven Renilla luciferase reporters (Taipale J, Chen J K, Cooper M K, Wang B. Mann R K, Milenkovic L. et al. “Effects of oncogenic mutations in Smoothened and Patched can be reversed by cyclopamine” Nature 2000; 406:1005-9; incorporated herein by reference), were cultured to confluency in 96-well plates using DMEM medium containing 10% calf serum, 100 U/mL penicillin, and 100 μg/mL streptomycin. The cells were then treated with various concentrations of the compounds in DMEM containing 0.5% calf serum and a 1:20 dilution of Shh-N-conditioned medium (Chen J. K., Taipale J. Young K. E., Maiti T Beachy P. A., “Small molecule modulation of Smoothened activity” Proc. Natl. Acad. Sci. U.S.A., 2002; 99:14071-6; incorporated herein by reference). The cells were cultured for an additional 30 h under standard conditions. Firefly and Renilla luciferase activities were measured on a Veritas luminometer (Turner Biosystems) using a dual luciferase kit (Promega) according to the manufacturers' protocols.

CCCN[C@H]1CC[C@H](N(Cc2cccc(-c3ccncc3)c2)C(=O)c2sc3ccccc3c2Cl)CC1 [SANT75, 3-chloro-N-(trans-4-(propylamino)cyclohexyl)-N-(3-(pyridin-4-yl)benzyl)benzo[b]thiophene-2-carboxamide]
BODIPY-cyclopamine/Smo binding (mouse Smoothened): effectively abrogate
off-target toxicity (zebrafish embryos): no obvious off-target toxicity
Shh-induced decrease in FRET from mSmo-CFPL2YFPC (FRETL2C) (mouse Smo): blocked
Shh-induced increase in FRET between mSmo-CFPC and mSmo-YFPC (FRETC) (mouse Smo): blocked
basal FRET of mSmo-CFPN/mSmoYFPN (N-termini) (mouse Smo): not affected
Ptch1 mRNA level [1]: reduced
Gli1 mRNA level [1]: reduced
concentration at which inhibition of Hh signaling starts to show [2]: 5 µM
concentration that blocks/abolishes Gli:GFP expression [2]: 20 µM
stability (Stability remarks): relatively stable
IC50 (Shh-LIGHT2 cells; read-out: IC50): 20 nM

C=CCN[C@H]1CC[C@H](N(Cc2cccc(-c3ccncc3)c2)C(=O)c2sc3ccccc3c2Cl)CC1 [SANT74, N-(trans-4-(allylamino)cyclohexyl)-3-chloro-N-(3-(pyridin-4-yl)benzyl)benzo[b]thiophene-2-carboxamide]
intersegmental blood vessels (ISV) (zebrafish embryos; 20 μM, Flk:GFP transgenic zebrafish): significantly reduced
insulin:GFP cells (zebrafish embryos; 20 μM, insulin:GFP transgenic zebrafish): significantly reduced
effect on sprouting of ISV (zebrafish embryos; added after 24 hpf): no longer had any effect
somite phenotype (zebrafish embryos; added for 4 hours before 21 hpf): induce U shape somite formation
sprouting of ISV (zebrafish embryos; added upon fertilization, washed away before 17 hpf): could occur normally
concentration at which embryos no longer developed any extended ISVs (zebrafish embryos; dose dependent inhibition of angiogenesis): ≥ 20 µM
circulation by microangiographic analysis (zebrafish embryos; embryos with defective ISVs): lacked circulation
off-target toxicity (zebrafish embryos): no obvious off-target toxicity
Shh-induced decrease in FRET from mSmo-CFPL2YFPC (FRETL2C) (mouse Smo): blocked
Shh-induced increase in FRET between mSmo-CFPC and mSmo-YFPC (FRETC) (mouse Smo): blocked
basal FRET of mSmo-CFPN/mSmoYFPN (N-termini) (mouse Smo): not affected
Ptch1 mRNA level [1]: reduced
Gli1 mRNA level [1]: reduced
concentration at which inhibition of Hh signaling starts to show [2]: 5 µM
concentration that blocks/abolishes Gli:GFP expression [2]: 20 µM
stability (Stability remarks): relatively stable

CC1=C2C[C@H]3[C@@H](CC=C4C[C@@H](O)CC[C@@]43C)[C@@H]2CC[C@]12O[C@@H]1C[C@H](C)CN[C@H]1[C@H]2C [cyclopamine, reference compound]
Gli:GFP expression upon treatment ([2]; transgenic embryos, concentration not given): abolished
IC50 (Shh-LIGHT2 cells): 300 nM

CNC1CCC(N(Cc2cccc(-c3ccncc3)c2)C(=O)c2sc3ccccc3c2Cl)CC1 (stereo not drawn) [SAG, reference compound]
FRETC (mouse Smo; 100 nM, independent of Shh): increase
FRETL2C (mouse Smo; 100 nM, independent of Shh): decrease
basal FRET of mSmo-CFPN/mSmoYFPN (N-termini) (mouse Smo): not affected
effect on Gli:GFP expression ([2]; same condition as SANT19, approximately 80 μM): no effect
